Target: BcRtt109-GST (Botrytis cinerea, UniProt A0A384J919)
Assay: in vitro acetylation of BcTol1-His6, immunoblot with anti-K122ac
Assay type: biochemical
Conditions: 0.2 mM acetyl-CoA; acceptor BcTol1-His6; 50 mM Tris-HCl pH 8.0, 37 °C, 1 h

Chain of BcRtt109-GST (A0A384J919 entry or part of it): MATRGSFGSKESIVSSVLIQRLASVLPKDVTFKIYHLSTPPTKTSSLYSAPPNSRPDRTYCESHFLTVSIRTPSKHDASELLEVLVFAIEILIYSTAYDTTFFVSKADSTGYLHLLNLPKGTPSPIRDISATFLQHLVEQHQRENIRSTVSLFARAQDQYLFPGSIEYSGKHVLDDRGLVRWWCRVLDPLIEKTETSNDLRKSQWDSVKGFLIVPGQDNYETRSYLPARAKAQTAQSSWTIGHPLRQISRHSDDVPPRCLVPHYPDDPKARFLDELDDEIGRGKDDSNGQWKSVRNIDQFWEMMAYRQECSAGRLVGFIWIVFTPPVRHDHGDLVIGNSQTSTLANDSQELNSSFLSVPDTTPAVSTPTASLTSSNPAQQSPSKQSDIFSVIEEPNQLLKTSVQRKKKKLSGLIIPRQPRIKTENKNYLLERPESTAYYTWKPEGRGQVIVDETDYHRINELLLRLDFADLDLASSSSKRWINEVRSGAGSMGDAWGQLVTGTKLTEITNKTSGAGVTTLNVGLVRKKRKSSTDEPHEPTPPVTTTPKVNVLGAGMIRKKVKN

CC(=O)SCCNC(=O)CCNC(=O)[C@H](O)C(C)(C)COP(=O)(O)OP(=O)(O)OC[C@H]1O[C@@H](n2cnc3c(N)ncnc32)[C@H](O)[C@@H]1OP(=O)(O)O [acetyl-CoA]
in vitro acetylation of BcTol1-His6, immunoblot with anti-K122ac: purified BcRtt109-GST, but not GST itself, acetylates WT BcTol1 effectively in vitro

From publication PMC7613639, “Broad-spectrum chemicals block ROS detoxification to prevent plant fungal invasion” (Current biology : CB, 2022)
